Assay results: US20180251431A1 (VERTEX PHARMACEUTICALS INCORPORATED, priority 2016, published 2018)

Key:
[1] = system: WT mice; test: Reduction of blood C26:0 LPC in vivo in wild-type mice; set-up: species or system mouse; settings: blood (DBS), plateau between the 2 mg/kg and 16 mg/kg doses, PO QD 28 days
Method: (§1) A LC-MS/MS method of analyzing Lysophosphatidylcholine (LPC) in whole blood (dried blood spot card, DBS) and brain tissue samples was developed for measuring the abundance of saturated C16, C18, C20, C22, C24 and C26 LPC in DBS and brain samples. Whole blood was collected with Whatman DMPK-C DBS card at an approximate volume of 20 μL at each time point. Brain tissue was collected at the end point of the study. Samples were prepared and LC-MS/MS analysis was performed as described below.
For DBS bioanalysis, the DBS card was punched at 3 mm in diameter using a semi-automated DBS card puncher. To each punched spot 200 μL of pure methanol was added. The vial was vortexed at low speed for 20 minutes and centrifuged at 4000 rpm for 20 minutes. The clear supernatant was injected onto LC-MS/MS for analysis. […]
(§2) The supernatant obtained from each sample was injected into a LC-MS/MS system (Agilent Technologies, Santa Clara, Calif. and Applied Biosystems, Framingham, Mass.) for analysis. […] LPCs were detected by an AB Sciex API-6500 triple quadrupole MS with electrospray ionization in the mode of multiple reaction monitoring. Ions of Q1 were monitored at m/z of 496.6, 524.6, 552.6, 580.6, 608.6 and 636.6 for LPC 16:0, LPC 18:0, LPC 20:0, LPC 22:0, LPC 24:0 and LPC 26:0, respectively. […] C16:0 LPC levels were expressed as a concentration. […]

[2] = Metabolic intrinsic clearance in dog hepatocytes; format: in vitro ADME; settings: beagle, cryopreserved hepatocytes in suspension, pH 7.5, 0.5 million cells/mL, incubation for 4 hours
Method: The metabolic intrinsic clearance (CLint) of Compound 87 was determined in human, monkey, dog, rat, and mouse hepatocytes. Cryopreserved human hepatocytes (Lot Hue50c), monkey hepatocytes (cynomolgus; Lot Cy328), dog hepatocytes (beagle, Lot Db235), rat hepatocytes (Sprague Dawley; NNH), and mouse hepatocytes (CD-1; Lot Mc522) were obtained from ThermoFisher (Paisley, UK). In separate experiments, compound 87 (1 μM) was incubated with hepatocytes from each species (0.5 million cells/mL, suspension) in Dulbecco's Modified Eagle's Medium (DMEM) supplemented with 4-(2-Hydroxyethyl)piperazine-1-ethanesulfonic acid (HEPES, 9 mM) and fructose (2.2 mM) (pH 7.5). Samples were quenched with acetonitrile and analyzed by LC-MS/MS. The mean CLint for Compound 87 in human, monkey, dog, rat, and mouse hepatocytes after incubation for 4 hours was determined to be ≤2.5, ≤2.5, 7.2, 23.6 and 10.7 μL/min/million cells. Based on these date, Compound 87 was low to moderately metabolized in hepatocytes in mouse, rat, dog, monkey, and human, and the rank order of stability at […] was approximately human>monkey>dog>mouse>rat. […] The metabolic stability of Compound 87 was not expected.

[3] = system: wild-type (WT) rats; test: Reduction of blood C26:0 LPC in vivo in wild-type rats; set-up: species or system rat; settings: blood (DBS)
Method: as §1
For DBS bioanalysis, the DBS card was punched at 3 mm in diameter using a semi-automated DBS card puncher. To each punched spot 200 μL of pure methanol was added. The vial was vortexed at low speed for 20 minutes and centrifuged at 4000 rpm for 20 minutes. The clear supernatant was injected onto LC-MS/MS for analysis. For brain tissue bioanalysis, brain tissue was collected in a tared homogenization tube pre-filled with metal bead and weighted. To each sample vial two parts weight of methanol was added. The sample was homogenized using Precellys-24 at 5000 rpm for 20 seconds with one cycle. A 100 mg aliquot of homogenate was used for analysis. To each sample vial 400 μL of pure methanol was added. The vial was vortexed at low speed for 20 minutes and centrifuged at 4000 rpm for 20 minutes. […]
as §2
Compound 87 was dosed PO (orally by oral gavage) QD at 30, 100, and 300 mg/kg in wild-type (WT) rats (n=5) for 7 days (FIG. 2C). […] DBS cards were stored at 4° C. until they could be analyzed for LPC. DBS samples were prepared and analyzed using LC-MS/MS as described above.

hepatocyte CLint at 1 μM [2]: 7.2 µL/min/1e6 cells
Compound: O=C(Nc1ccn(-c2ccnc(F)c2)n1)C1(c2ccccc2F)CC1 [Compound 87, 1-(2-fluorophenyl)-N-[1-(2-fluoro-4-pyridyl)pyrazol-3-yl]cyclopropanecarboxamide]
reduction in C26:0 LPC levels (maximal effect plateau) [1]: ~65%
reduction in C26:0 LPC levels compared to vehicle controls ([3]; 30 mg/kg PO QD for 7 days): ~65%
reduction in C26:0 LPC levels compared to vehicle controls ([3]; 100 mg/kg PO QD for 7 days): about 75%
reduction in C26:0 LPC levels compared to vehicle controls ([3]; 300 mg/kg PO QD for 7 days): about 85%
